Results from ChEMBL document CHEMBL1201862, “PubChem BioAssay data set” (2004).
Active and inactive are the calls of the source.

What was measured:
[1] = cytotoxicity in BJeHLT fibroblasts, dose response, counter-screen for Ras selective lethality project, BJeHLT cells, dry powder (AID 493052); type: functional, cell-based; conditions: Homo sapiens
[2] = viability loss in HRASV12 DRD fibroblasts, dose response, cell-based, DRD BJ fibroblasts, dry powder (AID 493049); type: functional
[3] = viability loss in BJeLR (HRASV12) cells, primary screen, Ras selective lethality project, cell-based, Alamar Blue, dry powder (AID 493045); type: functional
[4] = cytotoxicity in BJeH fibroblasts, dose response, counter-screen for Ras selective lethality project, BJeH cells, dry powder (AID 493054); type: functional, cell-based
[5] = target: G-protein coupled receptor 35 (Homo sapiens, UniProt Q9HC97); test: GPR35 antagonists blocking zaprinast-driven arrestin recruitment, primary screen, imaging, U2OS, beta-arrestin-GFP, zaprinast agonist (AID 2058); type: functional;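 further: antagonist potency meaning inhibition of agonist-induced arrestin redistribution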
[6] = target: T1, Heat shock factor protein 1 (Mus musculus, UniProt P38532); test: inhibition of MG132-induced HSE-luciferase signal, confirmation, cell-based, NIH3T3, luminescence, dose retest (AID 2382); type: functional;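 further: NIH3T3 fibroblasts with HSF1-driven luciferase reporter stressed by proteasome inhibitor MG132; luminescence from HSF1-driven luciferase expression after 8 hours of MG132 stress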
T1 sequence (P38532 whole entry): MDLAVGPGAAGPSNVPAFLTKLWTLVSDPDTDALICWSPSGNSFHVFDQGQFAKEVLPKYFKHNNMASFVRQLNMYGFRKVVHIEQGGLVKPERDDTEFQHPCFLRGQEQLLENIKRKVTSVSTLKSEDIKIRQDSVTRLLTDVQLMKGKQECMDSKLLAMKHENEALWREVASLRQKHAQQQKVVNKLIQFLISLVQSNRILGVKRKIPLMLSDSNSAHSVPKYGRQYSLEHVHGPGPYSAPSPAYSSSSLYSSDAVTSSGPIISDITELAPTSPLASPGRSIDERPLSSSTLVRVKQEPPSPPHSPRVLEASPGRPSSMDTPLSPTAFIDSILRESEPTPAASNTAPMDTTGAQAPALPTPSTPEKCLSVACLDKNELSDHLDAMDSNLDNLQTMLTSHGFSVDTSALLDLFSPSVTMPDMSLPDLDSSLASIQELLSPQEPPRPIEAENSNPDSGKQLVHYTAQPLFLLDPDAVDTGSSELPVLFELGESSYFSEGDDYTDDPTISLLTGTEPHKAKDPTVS

Saccharomyces cerevisiae = test: NALP1 inhibitor project selectivity study, Caspase-1/ASC signal blockade IC50 in S. cerevisiae (AID 488863); type: functional, organism-based
[7] = target: NACHT, LRR and PYD domains-containing protein 1 (Homo sapiens, UniProt Q9C000); test: NALP1 inhibitors in yeast, dose response, luminescent (AID 488860); type: functional
Beta-galactosidase = Beta-galactosidase (Escherichia coli, UniProt Q8VNN2); test: beta-galactosidase enzyme inhibitors and activators, dose response, artefact control for CCR6 antagonist project, biochemical, E. coli enzyme, set 3 (AID 504712); type: functional
CHO = test: cytotoxicity in TLR9-MyD88 CHO cells, dose response, cytotoxicity control for TLR9-MyD88 binding inhibitor project, cell-based, luminescence (AID 588339); type: functional, hamster; conditions: Cricetulus griseus;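 further: CHO cells stably coexpressing TLR9 and MyD88 fusions from primary screen; compound exposure lasted 48 hours before viability readout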
[8] = target: T2, Replicative DNA helicase DnaB (Mycobacterium tuberculosis, UniProt P9WMR3); test: DnaB intein splicing inhibitors, dose response, biochemical, cell-free fluorescence (AID 449749); type: functional
T2 sequence (P9WMR3 whole entry): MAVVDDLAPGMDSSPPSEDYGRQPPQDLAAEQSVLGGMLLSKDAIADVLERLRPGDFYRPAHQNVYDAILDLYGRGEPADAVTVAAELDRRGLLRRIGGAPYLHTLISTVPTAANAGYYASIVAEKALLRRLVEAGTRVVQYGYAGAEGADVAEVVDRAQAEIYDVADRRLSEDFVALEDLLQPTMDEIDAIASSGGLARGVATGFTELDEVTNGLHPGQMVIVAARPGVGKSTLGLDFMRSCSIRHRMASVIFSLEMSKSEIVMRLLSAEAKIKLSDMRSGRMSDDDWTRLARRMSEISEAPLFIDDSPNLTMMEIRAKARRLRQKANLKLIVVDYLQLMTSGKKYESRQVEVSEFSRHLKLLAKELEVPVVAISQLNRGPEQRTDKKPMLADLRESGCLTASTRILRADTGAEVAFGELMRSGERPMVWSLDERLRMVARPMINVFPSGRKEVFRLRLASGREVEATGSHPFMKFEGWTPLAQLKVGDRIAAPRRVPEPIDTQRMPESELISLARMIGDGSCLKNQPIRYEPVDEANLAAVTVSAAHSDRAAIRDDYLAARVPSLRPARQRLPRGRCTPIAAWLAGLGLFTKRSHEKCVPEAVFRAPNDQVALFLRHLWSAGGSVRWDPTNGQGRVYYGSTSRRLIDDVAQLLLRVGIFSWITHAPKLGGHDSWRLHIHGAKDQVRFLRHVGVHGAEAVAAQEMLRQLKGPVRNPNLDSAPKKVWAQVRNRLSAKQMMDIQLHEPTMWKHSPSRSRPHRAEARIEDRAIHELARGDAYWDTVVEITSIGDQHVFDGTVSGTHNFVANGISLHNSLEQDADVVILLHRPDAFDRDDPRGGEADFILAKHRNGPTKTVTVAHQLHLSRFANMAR

Protein RecA = target: T3, Protein RecA (Mycobacterium tuberculosis, UniProt P9WHJ3); test: Fluorescence Cell-Free Homogeneous Dose Retest to Identify Inhibitors of RecA-Intein Splicing Activity. [Related pubchem assays (depositor defined):AID2097, AID2223, AID489010, AID492950]; type: functional
T3 sequence (P9WHJ3 whole entry): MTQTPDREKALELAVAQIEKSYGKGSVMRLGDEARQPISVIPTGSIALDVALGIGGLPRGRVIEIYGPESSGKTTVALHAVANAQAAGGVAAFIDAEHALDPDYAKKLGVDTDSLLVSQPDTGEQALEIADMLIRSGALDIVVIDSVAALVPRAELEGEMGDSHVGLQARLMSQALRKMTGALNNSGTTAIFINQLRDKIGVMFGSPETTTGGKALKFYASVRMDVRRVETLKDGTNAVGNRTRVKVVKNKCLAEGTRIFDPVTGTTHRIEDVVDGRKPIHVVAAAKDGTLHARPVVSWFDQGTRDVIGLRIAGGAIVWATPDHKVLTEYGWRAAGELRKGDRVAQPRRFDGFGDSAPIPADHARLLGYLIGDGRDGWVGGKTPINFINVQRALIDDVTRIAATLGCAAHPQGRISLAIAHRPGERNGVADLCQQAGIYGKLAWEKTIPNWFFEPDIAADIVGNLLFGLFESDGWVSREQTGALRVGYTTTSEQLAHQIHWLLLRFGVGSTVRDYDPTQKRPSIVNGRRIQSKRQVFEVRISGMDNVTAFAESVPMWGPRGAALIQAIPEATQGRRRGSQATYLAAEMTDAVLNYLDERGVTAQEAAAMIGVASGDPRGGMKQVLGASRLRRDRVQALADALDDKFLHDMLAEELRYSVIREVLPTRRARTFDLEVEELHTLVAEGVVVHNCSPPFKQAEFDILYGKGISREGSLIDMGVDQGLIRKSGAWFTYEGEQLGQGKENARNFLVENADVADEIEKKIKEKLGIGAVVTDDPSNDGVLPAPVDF

Beta Lactamase = Beta Lactamase (Pseudomonas aeruginosa, UniProt Q932Y6); test: beta-lactamase reporter inhibitor potency, dose response, artefact control for TLR9-MyD88 binding inhibitor project, BLA reporter cells, FRET fluorescence (AID 588341); type: cell-based;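 further: cell based assay in CHO-K1 cells stably expressing beta-lactamase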
HEK293 [9] = test: cells; conditions: Homo sapiens
HEK293 [10] = test: cells; conditions: Homo sapiens; remark: listed apart in the source
Vero [11] = test: cytotoxicity of synthesized analogs in Vero 76, SAR follow-up, cytotoxicity control for West Nile virus antiviral project, Vero 76 cells (AID 2414); type: functional; conditions: Chlorocebus sabaeus
Vero [12] = test: cytotoxicity of synthesized analogs in Vero cells, SAR follow-up, cytotoxicity control for West Nile virus antiviral project, cell-based, set II (AID 2402); type: functional; conditions: Chlorocebus sabaeus
Vero [13] = test: Vero E6 cell cytotoxicity, SAR follow-up, cytotoxicity control for West Nile virus antiviral project, synthesized analogs (AID 2244); type: functional; conditions: Chlorocebus sabaeus
Vero [14] = test: West Nile virus CPE inhibition, SAR follow-up, cell-based, synthesized analogs (AID 2238); type: functional; conditions: Chlorocebus sabaeus
[15] = target: T4, Short transient receptor potential channel 4 (Mus musculus, UniProt Q9QUQ5); test: TRPC4 positive allosteric modulators, dose response, cell-based, HEK293 TRPC4/mu-opioid, Fluo-4 calcium, EC20 DAMGO (AID 434941); type: functional
T4 sequence (Q9QUQ5 whole entry): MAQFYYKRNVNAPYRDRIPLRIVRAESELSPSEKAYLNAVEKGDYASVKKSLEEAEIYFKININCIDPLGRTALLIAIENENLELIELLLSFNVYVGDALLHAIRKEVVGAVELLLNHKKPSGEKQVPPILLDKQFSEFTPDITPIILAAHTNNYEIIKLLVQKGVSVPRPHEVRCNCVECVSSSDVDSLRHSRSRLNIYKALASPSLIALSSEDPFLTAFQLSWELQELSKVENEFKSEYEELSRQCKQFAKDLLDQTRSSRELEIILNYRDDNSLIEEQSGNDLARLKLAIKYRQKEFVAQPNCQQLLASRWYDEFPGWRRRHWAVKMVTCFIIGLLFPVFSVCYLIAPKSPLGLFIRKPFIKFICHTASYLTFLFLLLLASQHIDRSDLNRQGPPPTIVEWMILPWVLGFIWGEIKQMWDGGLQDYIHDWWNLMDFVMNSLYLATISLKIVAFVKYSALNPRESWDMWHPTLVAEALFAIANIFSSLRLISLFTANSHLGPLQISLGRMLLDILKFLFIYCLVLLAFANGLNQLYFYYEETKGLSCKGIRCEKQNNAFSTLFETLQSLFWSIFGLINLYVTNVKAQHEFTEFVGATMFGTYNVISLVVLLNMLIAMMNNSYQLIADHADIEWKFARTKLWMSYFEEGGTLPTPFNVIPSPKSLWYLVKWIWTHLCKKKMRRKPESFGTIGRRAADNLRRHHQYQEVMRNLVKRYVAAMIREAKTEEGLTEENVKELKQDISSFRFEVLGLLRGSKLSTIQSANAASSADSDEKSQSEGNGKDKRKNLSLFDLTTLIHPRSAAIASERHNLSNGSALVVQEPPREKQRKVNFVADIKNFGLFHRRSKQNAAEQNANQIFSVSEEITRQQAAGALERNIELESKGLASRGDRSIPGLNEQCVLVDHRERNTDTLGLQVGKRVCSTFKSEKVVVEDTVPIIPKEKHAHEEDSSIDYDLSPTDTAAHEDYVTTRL

[16] = target: T5, Eukaryotic translation initiation factor 4H (Homo sapiens, UniProt Q15056); test: human eIF4H binding inhibitors, primary screen, translation initiation inhibitor project, biochemical, uHTS, fluorescence polarization (AID 2012)
[17] = target: T6, Polyadenylate-binding protein 1 (Homo sapiens, UniProt P11940); test: PABP poly(A) RNA binding inhibitors, primary screen, biochemical, fluorescence polarization, uHTS (AID 2014)
[18] = target: T5, Eukaryotic translation initiation factor 4H; test: eIF4H inhibition in translation initiation, SAR follow-up (AID 435011); type: functional
[19] = target: T6, Polyadenylate-binding protein 1; test: PABP inhibition in translation initiation, SAR follow-up (AID 435018); type: functional

T6 sequence (P11940 whole entry): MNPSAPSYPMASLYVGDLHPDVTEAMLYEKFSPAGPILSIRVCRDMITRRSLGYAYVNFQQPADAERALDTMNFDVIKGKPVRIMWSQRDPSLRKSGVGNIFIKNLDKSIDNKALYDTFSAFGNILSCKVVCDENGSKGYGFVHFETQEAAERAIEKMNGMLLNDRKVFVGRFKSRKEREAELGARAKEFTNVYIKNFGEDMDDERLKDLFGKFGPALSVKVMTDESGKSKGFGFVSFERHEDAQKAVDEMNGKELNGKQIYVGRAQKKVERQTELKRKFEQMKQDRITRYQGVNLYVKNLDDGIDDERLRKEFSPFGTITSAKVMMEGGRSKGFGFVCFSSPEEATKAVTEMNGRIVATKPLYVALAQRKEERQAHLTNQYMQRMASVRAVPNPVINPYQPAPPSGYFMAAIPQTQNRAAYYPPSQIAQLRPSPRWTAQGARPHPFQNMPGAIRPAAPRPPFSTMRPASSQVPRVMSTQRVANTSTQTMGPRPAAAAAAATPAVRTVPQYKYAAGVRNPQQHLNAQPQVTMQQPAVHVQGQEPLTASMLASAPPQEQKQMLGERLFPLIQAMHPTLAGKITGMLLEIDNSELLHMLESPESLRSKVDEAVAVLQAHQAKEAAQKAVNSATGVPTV
Sequence of Beta-galactosidase (Q8VNN2 whole entry, the tested form may be a part): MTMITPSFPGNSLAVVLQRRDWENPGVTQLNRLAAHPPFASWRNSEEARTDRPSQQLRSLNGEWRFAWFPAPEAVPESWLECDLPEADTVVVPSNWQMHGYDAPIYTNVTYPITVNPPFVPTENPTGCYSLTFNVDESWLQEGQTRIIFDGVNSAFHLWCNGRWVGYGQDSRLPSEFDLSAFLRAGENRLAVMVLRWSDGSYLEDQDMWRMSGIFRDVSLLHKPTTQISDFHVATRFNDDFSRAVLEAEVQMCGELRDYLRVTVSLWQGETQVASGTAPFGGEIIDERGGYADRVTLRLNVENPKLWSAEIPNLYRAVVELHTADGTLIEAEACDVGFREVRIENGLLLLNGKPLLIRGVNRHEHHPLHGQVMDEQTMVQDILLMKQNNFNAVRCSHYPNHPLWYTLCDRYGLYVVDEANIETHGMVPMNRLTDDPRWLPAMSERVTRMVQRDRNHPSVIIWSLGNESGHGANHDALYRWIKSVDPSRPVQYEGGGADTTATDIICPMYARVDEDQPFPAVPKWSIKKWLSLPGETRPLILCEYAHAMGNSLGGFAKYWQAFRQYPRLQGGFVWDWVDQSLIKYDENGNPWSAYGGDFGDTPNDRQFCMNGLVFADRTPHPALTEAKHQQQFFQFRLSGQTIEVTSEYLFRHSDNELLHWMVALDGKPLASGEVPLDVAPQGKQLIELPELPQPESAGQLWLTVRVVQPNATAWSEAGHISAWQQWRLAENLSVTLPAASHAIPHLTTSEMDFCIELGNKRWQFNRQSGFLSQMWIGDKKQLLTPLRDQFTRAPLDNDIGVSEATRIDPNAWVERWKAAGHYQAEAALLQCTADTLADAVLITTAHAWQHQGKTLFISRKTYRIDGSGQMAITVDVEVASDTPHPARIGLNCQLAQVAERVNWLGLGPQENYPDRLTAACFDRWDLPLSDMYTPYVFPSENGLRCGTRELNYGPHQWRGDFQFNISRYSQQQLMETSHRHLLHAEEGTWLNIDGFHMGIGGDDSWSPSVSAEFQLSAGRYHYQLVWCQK
Sequence of NACHT, LRR and PYD domains-containing protein 1 (Q9C000 1-1212 limits assumed): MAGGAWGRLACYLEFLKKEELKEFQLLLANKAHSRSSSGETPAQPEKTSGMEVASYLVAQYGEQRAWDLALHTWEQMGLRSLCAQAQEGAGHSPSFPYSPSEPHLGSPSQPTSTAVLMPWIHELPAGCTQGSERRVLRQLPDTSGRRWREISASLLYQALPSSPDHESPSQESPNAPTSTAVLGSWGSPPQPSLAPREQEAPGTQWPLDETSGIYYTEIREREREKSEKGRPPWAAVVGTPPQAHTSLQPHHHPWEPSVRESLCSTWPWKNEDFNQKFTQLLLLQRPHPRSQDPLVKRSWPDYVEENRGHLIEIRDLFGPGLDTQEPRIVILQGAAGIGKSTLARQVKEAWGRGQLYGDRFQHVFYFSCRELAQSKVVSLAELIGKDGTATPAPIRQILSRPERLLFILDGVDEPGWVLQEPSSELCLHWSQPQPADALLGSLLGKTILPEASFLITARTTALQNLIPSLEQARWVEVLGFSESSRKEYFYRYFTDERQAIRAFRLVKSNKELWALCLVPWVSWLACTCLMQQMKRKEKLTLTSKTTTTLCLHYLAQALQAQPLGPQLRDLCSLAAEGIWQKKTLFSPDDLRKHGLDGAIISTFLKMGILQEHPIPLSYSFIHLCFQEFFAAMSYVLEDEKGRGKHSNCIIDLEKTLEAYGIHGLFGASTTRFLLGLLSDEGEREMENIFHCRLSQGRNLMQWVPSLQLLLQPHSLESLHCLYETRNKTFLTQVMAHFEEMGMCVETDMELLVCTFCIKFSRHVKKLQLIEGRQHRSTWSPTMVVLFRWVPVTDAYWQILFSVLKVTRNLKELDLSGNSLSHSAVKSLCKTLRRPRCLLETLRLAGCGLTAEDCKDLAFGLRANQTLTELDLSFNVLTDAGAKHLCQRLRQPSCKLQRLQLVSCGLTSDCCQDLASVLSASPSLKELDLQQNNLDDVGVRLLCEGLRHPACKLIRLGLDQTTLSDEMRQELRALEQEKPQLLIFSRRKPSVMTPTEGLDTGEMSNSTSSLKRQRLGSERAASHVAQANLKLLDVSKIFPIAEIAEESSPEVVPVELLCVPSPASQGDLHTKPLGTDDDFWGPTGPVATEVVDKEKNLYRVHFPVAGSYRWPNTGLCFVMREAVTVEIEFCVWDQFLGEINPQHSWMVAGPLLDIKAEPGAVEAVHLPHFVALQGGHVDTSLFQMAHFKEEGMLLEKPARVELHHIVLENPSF
Sequence of NACHT, LRR and PYD domains-containing protein 1 (Q9C000 1213-1473 limits assumed): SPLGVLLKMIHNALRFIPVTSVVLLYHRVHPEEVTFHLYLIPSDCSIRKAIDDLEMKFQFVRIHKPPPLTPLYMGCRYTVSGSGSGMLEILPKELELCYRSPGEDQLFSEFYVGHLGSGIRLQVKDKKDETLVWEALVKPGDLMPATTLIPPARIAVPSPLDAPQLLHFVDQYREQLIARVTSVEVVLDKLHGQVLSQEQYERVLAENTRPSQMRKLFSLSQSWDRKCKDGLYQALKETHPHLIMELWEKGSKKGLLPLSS
Sequence of G-protein coupled receptor 35 (Q9HC97 whole entry): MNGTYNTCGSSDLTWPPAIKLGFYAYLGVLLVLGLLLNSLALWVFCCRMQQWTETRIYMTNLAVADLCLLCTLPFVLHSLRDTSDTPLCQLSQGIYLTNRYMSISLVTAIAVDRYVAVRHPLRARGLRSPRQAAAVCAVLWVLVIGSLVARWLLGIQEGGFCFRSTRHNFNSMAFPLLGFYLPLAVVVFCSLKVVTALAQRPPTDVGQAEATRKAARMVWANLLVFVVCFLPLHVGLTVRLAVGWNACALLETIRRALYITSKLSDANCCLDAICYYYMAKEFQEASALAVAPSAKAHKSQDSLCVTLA
Sequence of Beta Lactamase (Q932Y6 whole entry): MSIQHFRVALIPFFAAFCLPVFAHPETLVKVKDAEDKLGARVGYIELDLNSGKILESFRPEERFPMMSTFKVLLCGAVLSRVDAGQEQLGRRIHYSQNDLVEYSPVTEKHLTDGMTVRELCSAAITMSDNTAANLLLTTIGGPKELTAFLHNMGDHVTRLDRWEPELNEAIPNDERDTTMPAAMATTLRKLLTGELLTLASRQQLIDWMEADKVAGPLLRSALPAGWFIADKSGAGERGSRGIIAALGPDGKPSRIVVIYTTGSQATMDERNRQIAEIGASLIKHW

For `COc1ccc(C(C(=O)NC2CCCCC2)N(C(=O)CCl)c2ccc(OC)c(Cl)c2)cc1` (centres undefined), the AC50 [1] was 0.366 µM (active), the AC50 [2] was 0.126 µM (active) and the AC50 [3] was 0.122 µM (active). For the same compound, the AC50 [4] was 0.536 µM (active).

For `CC(NC(=O)/C(C#N)=C/c1ccc([N+](=O)[O-])o1)c1ccccc1` (centres undefined), the IC50 [5] was 3.85 µM (active), the EC50 [6] was 6.1 µM (active) and the IC50 (Saccharomyces cerevisiae) was 9.51 µM (active). The IC50 [7] was 14.3 µM (active), the IC50 (Beta-galactosidase) was > 66.6 µM (inactive) and the IC50 (CHO) was 4.03 µM (active). The AC50 [8] was > 120 µM (inactive), the EC50 (Protein RecA) was 35 µM (active) and the IC50 (Beta Lactamase) was 8.23 µM (active). For the same compound, the EC50 (HEK293 [9]) was > 59.6 µM (inactive) and the EC50 (HEK293 [10]) was > 59.6 µM (inactive).

In the case of `O=C(CSc1nc2ccccc2c(=O)n1-c1ccccc1F)Nc1ccc2c(c1)CCC2`, the CC50 (Vero [11]) is reported as > 66.6 µM (active), the CC50 (Vero [12]) is reported as > 100 µM (active) and the CC50 (Vero [13]) is reported as > 40 µM (active). The IC50 (Vero [14]) was 16.4 µM (active).

With `Cc1ccc(C(C)C)cc1OCCCCN1CCCC1` the EC50 [15] was 0.53 µM (active).

In the case of `O=C(Nc1cccc2ncccc12)c1ccccc1Cl`, the IC50 [16] is reported as > 100 µM (inactive), the IC50 [17] is reported as 4 µM (active) and the IC50 [18] is reported as 9.25 µM (active). For the same compound, the IC50 [19] was 1.68 µM (active).
